Values joined by “and” are separate entries in the source; they are usually repeats but may differ in a detail not shown here. Identical values can stand only once. Like-named read-outs stand apart in the source and are kept apart here.
How the values were obtained:
HCV Genotype 1b replicon = experiment: microbe, parasite or virus in culture; assay type: cell-based; conditions: Hepatitis C virus
HBV replicon = experiment: microbe, parasite or virus in culture; assay type: cell-based; conditions: Hepatitis B virus
[1] = Pharmacokinetics in mice, i.v. and oral; assay type: in vivo, CD-1 mice; conditions: for bioavailability: po
Method: The housing conditions and experimental procedures were approved by the ethics committee on animal experiments of Janssen Pharmaceutica NV (license number LA1100119). Janssen Pharmaceutica NV has full AAALAC accreditation. […] The blood samples were immediately centrifuged at 4 °C and the plasma was stored at −20 °C. Compound concentrations in the plasma samples were determined using the API 5500 LC–MS/MS system mass spectrometer (Applied Biosystems). […] (Certara).

HIV-1 IIIB = experiment: microbe, parasite or virus in culture; assay type: cell-based; conditions: Human immunodeficiency virus 1, IIIB, MAGI-CCR5
DENV-4 G3 Thailand = experiment: DENV genotype panel RT-qPCR, Vero E6; assay type: cell-based; conditions: Dengue virus, DENV4, Vero C1008
Method: (§1) A total of 20 DENV strains, representing the available genotypes within the four DENV serotypes, were used in the in vitro genotype panel, from which 19 viruses were described previously in ref. [3] and one additional virus, DENV-1/45AZ5 (ref. [54]), was added.
(§2) A potential toxic effect on host cells was tested in parallel, while omitting virus infection, using the MTS/PMS method (Promega) for Vero cells, or by high-content imaging for C6/36 cells, as described previously. […] RT–qPCR data were analysed using the QuantStudio 12K Flex software (v.1.2.3) or SDS v.1.2 Applied Biosystems software. Inhibition values for antiviral molecules were plotted using KaleidaGraph plotting software (v.4.03, Synergy Software).

DENV-3 G3 Bolivia = experiment: DENV genotype panel RT-qPCR, Vero E6; assay type: cell-based; conditions: Dengue virus, DENV3, Vero C1008
Method: as §1, §2

DENV-3 G1 Malaysia = experiment: DENV genotype panel RT-qPCR, Vero E6; assay type: cell-based; conditions: Dengue virus, DENV3, Vero C1008
Method: as §1, §2

DENV-1 G4 Indonesia = experiment: DENV genotype panel RT-qPCR, Vero E6; assay type: cell-based; conditions: Dengue virus, DENV1, Vero C1008
Method: as §1, §2

DENV-2 American Trinidad = experiment: DENV genotype panel RT-qPCR, Vero E6; assay type: cell-based; conditions: Dengue virus, DENV2, Vero C1008
Method: as §1, §2

DENV-3 G2 Thailand = experiment: DENV genotype panel RT-qPCR, Vero E6; assay type: cell-based; conditions: Dengue virus, DENV3, Vero C1008
Method: as §1, §2

DENV-1 G1 Djibouti = experiment: DENV genotype panel RT-qPCR, Vero E6; assay type: cell-based; conditions: Dengue virus, DENV1, Vero C1008; mean ± SD
Method: as §1, §2

DENV-4 G2b Brazil = experiment: DENV genotype panel RT-qPCR, Vero E6; assay type: cell-based; conditions: Dengue virus, DENV4, Vero C1008
Method: as §1, §2

DENV-4 Sylvatic Malaysia = experiment: DENV genotype panel RT-qPCR, Vero E6; assay type: cell-based; conditions: Dengue virus, DENV4, Vero C1008
Method: as §1, §2

in vivo = experiment: in vivo; design: species or system rhesus macaques; conditions: both sexes, Indian-strain, rhesus monkey, po, 6 mg/kg
Description: WRAIR is fully accredited by AAALAC International.

ZIKV H/PF/2013 = experiment: microbe, parasite or virus in culture; assay type: cell-based; conditions: Zika virus, Vero C1008
DENV-2 Asian I Thailand = assay type: cell-based; conditions: T108I in NS4B
hCMV AD169 = experiment: microbe, parasite or virus in culture; assay type: cell-based; conditions: Human betaherpesvirus 5, AD169, MRC5; MRC-5
[2] = male, CD-1, plasma, mouse oral 1 mg/kg
[3] = male, CD-1, plasma, mouse oral 10 mg/kg
[4] = male, CD-1, plasma, mouse oral 30 mg/kg
[5] = mouse i.v. 2.5 mg/kg, 2.5 mg/kg

Q: Which results are given for `COc1cc(N[C@H](C(=O)c2c[nH]c3ccc(OC(F)(F)F)cc23)c2ccc(Cl)cc2OC)cc(S(C)(=O)=O)c1` [JNJ-1802]?
A: EC50 (HCV Genotype 1b replicon): 5500 nM; EC50 (HCV Genotype 1b replicon; read-out: EC50, Mean): 5450 nM; EC90 (HCV Genotype 1b replicon; read-out: EC90, Mean): 20300 nM; EC50 (HBV replicon; HepG2.117): 10000 nM; EC50 (HBV replicon; HepG2.117, read-out: EC50, Mean): 9960 nM; EC90 (HBV replicon; HepG2.117, read-out: EC90, Mean): 12500 nM; clearance ([1]; male, CD-1, in vivo, iv, mouse i.v. 2.5 mg/kg, read-out: CLp): 4.97 ± 1.26 mL/min/kg; Cmax ([1]; male, CD-1, in vivo, mouse oral 3 mg/kg): 501 ± 149 ng/mL; half-life ([1]; male, CD-1, mouse, plasma, iv, 2.5 mg/kg, mouse i.v. 2.5 mg/kg): 6.2 h; bioavailability ([1]; male, CD-1, mouse, plasma, 1 mg/kg, mouse oral 1 mg/kg): 46 ± 6%; bioavailability ([1]; male, CD-1, mouse, plasma, 3 mg/kg, mouse oral 3 mg/kg): 59 ± 28%; bioavailability ([1]; male, CD-1, mouse, plasma, 10 mg/kg, mouse oral 10 mg/kg): > 100%; bioavailability ([1]; male, CD-1, mouse, plasma, 30 mg/kg, mouse oral 30 mg/kg): 121 ± 21%; AUC(0-t) ([1]; male, CD-1, mouse, plasma, mice, single oral dose 1 to 30 mg per kg, read-out: AUC0–24h, range): 1520 to 120000 ng·h/mL; AUC(0-inf) ([1]; male, CD-1, plasma, iv, mouse i.v. 2.5 mg/kg): 8820 ng·h/mL; AUC(0-t) ([1]; male, CD-1, plasma, iv, mouse i.v. 2.5 mg/kg, read-out: AUC(0-24h)): 8240 ng·h/mL; Cmax [1, 2]: 119 ± 26 ng/mL; Tmax [1, 2]: 5 ± 1.7 h; AUC(0-t) ([1]; male, CD-1, plasma, mouse oral 1 mg/kg, read-out: AUC(0-24h)): 1520 ng·h/mL; Tmax ([1]; male, CD-1, plasma, mouse oral 3 mg/kg): 5 ± 1.7 h; AUC(0-t) ([1]; male, CD-1, plasma, mouse oral 3 mg/kg, read-out: AUC(0-24h)): 5780 ng·h/mL; Cmax [1, 3]: 2730 ng/mL; Tmax [1, 3]: 7 h; AUC(0-t) ([1]; male, CD-1, plasma, mouse oral 10 mg/kg, read-out: AUC(0-24h)): 35600 ng·h/mL; Cmax [1, 4]: 7760 ng/mL; Tmax [1, 4]: 6 ± 1.7 h; AUC(0-t) ([1]; male, CD-1, plasma, mouse oral 30 mg/kg, read-out: AUC(0-24h)): 120000 ng·h/mL; Vdssp [1, 5]: 2.51 ± 0.55 L/kg and 2.51 ± 0.553 L/kg; t1/2 [1, 5]: 6.17 ± 0.23 h; F ([1]; mouse oral 1 mg/kg, 1 mg/kg): 46.1+/-6.47%; F ([1]; mouse oral 3 mg/kg, 3 mg/kg): 58.5+/-27.9%; EC50 (HIV-1 IIIB): 1600 nM; EC50 (DENV-4 G3 Thailand): 45 nM; EC90 (DENV-4 G3 Thailand): 46 ± 12 nM; EC50 (DENV-3 G3 Bolivia): 0.9 ± 1.1 nM; EC90 (DENV-3 G3 Bolivia): 6.71 ± 0.66 nM; EC50 (DENV-3 G1 Malaysia): 1.28 ± 0.46 nM; EC90 (DENV-3 G1 Malaysia): 3.6 ± 1.9 nM; EC90 (DENV-1 G4 Indonesia): 0.8 ± 0.31 nM; EC50 (DENV-1 G4 Indonesia; two of four values below threshold): < 0.19 nM; EC50 (DENV-2 American Trinidad): 0.063 ± 0.081 nM; EC90 (DENV-2 American Trinidad): 0.162 ± 0.083 nM; EC50 (DENV-3 G2 Thailand): 1.68 ± 0.24 nM; EC90 (DENV-3 G2 Thailand): 5.8 ± 3 nM; EC50 (DENV-1 G1 Djibouti): 0.207 ± 0.056 nM; EC90 (DENV-1 G1 Djibouti): 0.83 ± 0.37 nM; EC50 (DENV-4 G2b Brazil): 0.521 ± 0.08 nM; EC90 (DENV-4 G2b Brazil): 1.54 ± 0.15 nM; EC50 (DENV-4 Sylvatic Malaysia): 0.66 ± 0.42 nM; EC90 (DENV-4 Sylvatic Malaysia): 1.6 ± 1.1 nM; Tmax (in vivo): 8 h; EC50 (ZIKV H/PF/2013): 1100 nM; EC50 (DENV-2 Asian I Thailand): 1.4 ± 0.34 nM; EC90 (DENV-2 Asian I Thailand): 2.78 ± 0.037 nM; EC50 (hCMV AD169): 9000 nM
